Source: ChEMBL document CHEMBL1201862, “PubChem BioAssay data set” (2004)
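Grown in 96-well plates, cells were treated for 48 hours with each compound at five concentrations. Insufficient inhibition: endpoint recorded as highest concentration tested. Here, GI50 denotes the concentration required for 50% inhibition of growth.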 Active and inactive are the calls of the source. Cut-off read from the data, not from the text of the source: active = GI50 up to about 1.1 µM and inactive = higher.

What was measured:
Experiment in all cases: growth of human tumour cells (NCI), 48 h
HCC 2998 = test system: HCC 2998
NCI-H23 = test system: NCI-H23
SNB-75 = test system: SNB-75
SK-MEL-5 = test system: SK-MEL-5
OVCAR-4 = test system: OVCAR-4
CCRF-CEM = test system: CCRF-CEM
HOP-92 = test system: HOP-92
NCI-H522 = test system: NCI-H522
M14 = test system: M14
SK-OV-3 = test system: SK-OV-3
ACHN = test system: ACHN
SNB-19 = test system: SNB-19
NCI-H226 = test system: NCI-H226
UACC-257 = test system: UACC-257
RPMI-8226 = test system: RPMI-8226
SK-MEL-2 = test system: SK-MEL-2
IGROV-1 = test system: IGROV-1
MCF7 = test system: MCF7
UO-31 = test system: UO-31
EKVX = test system: EKVX

Structure (SMILES) | GI50 (HCC 2998) | GI50 (NCI-H23) | GI50 (SNB-75) | GI50 (SK-MEL-5) | GI50 (OVCAR-4) | GI50 (CCRF-CEM) | GI50 (HOP-92) | GI50 (NCI-H522) | GI50 (M14) | GI50 (SK-OV-3) | GI50 (ACHN) | GI50 (SNB-19) | GI50 (NCI-H226) | GI50 (UACC-257) | GI50 (RPMI-8226) | GI50 (SK-MEL-2) | GI50 (IGROV-1) | GI50 (MCF7) | GI50 (UO-31) | GI50 (EKVX)
CCCSc1ccc2[nH]c(N3C(=O)/C(=C/c4cc(OC)c(OC)c(OC)c4)N=C3c3ccccc3)cc2c1 | 13.2 µM (inactive) | 10.9 µM (inactive) | 10.8 µM (inactive) | 7.53 µM (inactive) | 14.5 µM (inactive) | 7.94 µM (inactive) | 13.9 µM (inactive) | 8.97 µM (inactive) | 10.4 µM (inactive) | 1.6 µM (inactive) | 23 µM (inactive) | 0.681 µM (active) | > 37.5 µM (inactive) | 13.8 µM (inactive) | 9.18 µM (inactive) | 18.4 µM (inactive) | 9.38 µM (inactive) | 12.6 µM (inactive) | 15.1 µM (inactive) | 5.74 µM (inactive)
CCCn1c(CN(Cc2nc3ccccc3n2CCC)Cc2nc3ccccc3n2CCC)nc2ccccc21 | 5.68 µM (inactive) | 5.11 µM (inactive) | 6.79 µM (inactive) | 2.55 µM (inactive) | 3.73 µM (inactive) | 2.76 µM (inactive) | 3.03 µM (inactive) | 4.63 µM (inactive) | 2.46 µM (inactive) | 41.5 µM (inactive) | 2.11 µM (inactive) | 7.01 µM (inactive) | 6.47 µM (inactive) | 7.36 µM (inactive) | 2.04 µM (inactive) | 5.69 µM (inactive) | 1.94 µM (inactive) | 0.973 µM (active) | 2.21 µM (inactive) | 0.966 µM (active)
O=S1(=O)CS(=O)(=O)OCCCO1 | > 100 µM (inactive) | 68.5 µM (inactive) | 51.8 µM (inactive) | > 100 µM (inactive) | > 100 µM (inactive) | 63.8 µM (inactive) | > 100 µM (inactive) | > 100 µM (inactive) | > 100 µM (inactive) | > 100 µM (inactive) | 52.1 µM (inactive) | > 100 µM (inactive) | > 100 µM (inactive) | > 100 µM (inactive) | > 100 µM (inactive) | > 100 µM (inactive) | > 100 µM (inactive) | 97.1 µM (inactive) | > 100 µM (inactive) | > 100 µM (inactive)
C#C[C@]1(O)[C@@H](CO)O[C@@H](n2ccc(=O)[nH]c2=O)[C@@H]1O | 0.0592 µM (active) | 0.428 µM (active) | 0.357 µM (active) | 0.441 µM (active) | 0.43 µM (active) | 0.19 µM (active) | 0.132 µM (active) | 0.0214 µM (active) | 0.237 µM (active) | 1.97 µM (inactive) | 0.0272 µM (active) | 1.03 µM (active) | 0.0746 µM (active) | 1.81 µM (inactive) | 0.0101 µM (active) | 0.15 µM (active) | 0.0745 µM (active) | 0.0339 µM (active) | 0.0278 µM (active) | 4.72 µM (inactive)
